Reference: US9216163B2, “Method of inhibiting angiogenesis” (KYORIN PHARMACEUTICAL CO., LTD, priority 2013, dated 2015)

What was measured:
[1] = tested on: VEGF-induced angiogenesis formed in Matrigel; experiment: VEGF-induced angiogenesis in Matrigel, in vivo mouse model (Evans blue); details: male C57BL/6J mouse, 5 μg/g B.W. intraperitoneal twice daily for 14 days
Method: An effect of L-carbocisteine against angiogenesis promoted by VEGF was evaluated in an in vivo mouse model. A male C57BL/6J mouse (6 weeks) was anesthetized with pentobarbital. Subsequently, 500 μL of BD™ matrix containing 30 ng/mL VEGF was subcutaneously injected into the side of the mouse using a 27-G needle. L-carbocisteine (5 μg per g of body weight of the mouse) or physiologic saline (the same volume) was intraperitoneally administered twice a day, morning and evening, for 14 days. After completion of the administration for 14 days, Evans blue was administered to the mouse via the orbital vein plexus. The mouse was sufficiently perfused with EDTA, and anesthetized with pentobarbital. The matrigel was taken out from the body of the mouse. The weight of taken matrigel was measured, and the matrigel was immersed in a formamide solution and allowed to stand at 37° C. for 48 hours. Following elution of Evans blue in the formamide solution, the weight of eluted Evans blue per unit weight of the matrigel was measured using an absorbance of 620 nm (n=8).

HUVEC [2] = experiment: VEGF-induced tube formation of HUVEC in collagen; assay type: cell-based, human; details: 100 μM pretreatment 15 minutes, VEGF 30 ng/mL, after 24 hours
Method: An effect of L-carbocisteine against tube formation promoted by VEGF was evaluated in vitro using HUVEC. A collagen Type 1-C (available from Nitta Gelatin Inc.) lower layer was formed on a 12-well plate, HUVEC were inoculated on the lower layer, and a collagen upper layer was then formed. The HUVEC were pretreated with L-carbocisteine (100 μM) for 15 minutes, and stimulated by VEGF (30 ng/mL). The overall length of the lumen after 24 hours was measured (n=6).

HUVEC [3] = experiment: VEGF-induced cell migration of HUVEC; assay type: cell-based, human; details: 100 μM pretreatment 15 minutes, VEGF 30 ng/mL, after 12 hours
Method: An effect of L-carbocisteine against cell migration promoted by VEGF was evaluated in vitro using HUVEC. HUVEC were inoculated in a plate, and cultured until confluent. Subsequently, the HUVEC were cultured in a medium without VEGF and bFGF overnight under starvation condition. The HUVEC were pretreated with L-carbocisteine (100 μM) for 15 minutes. The cells (HUVEC) on the plate were peeled at certain intervals. The cells remaining on the plate were stimulated by VEGF (30 ng/mL). After 12 hours, the distance of cell migration was measured (n=4).

Akt = experiment: VEGF-induced phosphorylation of Akt in HUVEC (Western blot); assay type: cell-based, human; details: 100 μM pretreatment 15 minutes, VEGF 30 ng/mL for 5 or 15 minutes
Method: (§1) An effect of L-carbocisteine against phosphorylation of Akt, Erk1/2, c-Jun N-terminal kinase (JNK), and p38 MAP kinase accelerated by VEGF stimulation was evaluated using HUVEC. HUVEC were inoculated, and cultured in an EBM-2 medium containing 0.1% FBS overnight under starvation condition. The HUVEC were pretreated with L-carbocisteine (100 μM) for 15 minutes, and stimulated by VEGF (30 ng/mL) for 5 or 15 minutes. Phosphorylation accelerated by VEGF stimulation was evaluated using phosphor-specific antibodies against various kinases by a Western blot method. The level of kinase protein expression was investigated using each antibody after detection of phosphorylation.

[4] = tested on: c-Jun N-terminal kinase (JNK); experiment: VEGF-induced phosphorylation of JNK in HUVEC (Western blot); assay type: cell-based, human; details: 100 μM pretreatment 15 minutes, VEGF 30 ng/mL for 5 or 15 minutes
Method: as §1

HUVEC [5] = experiment: VEGF-induced cell growth of HUVEC (Cell Counting Kit-8); assay type: cell-based, human; details: VEGF 30 ng/mL
Method: An effect of L-carbocisteine against cell growth promotion by VEGF was evaluated in vitro using HUVEC. HUVEC were inoculated at 2,500 cells/well in a 96-well microplate, and cultured for 24 hours. Subsequently, the HUVEC were cultured in a medium without VEGF and bFGF overnight under a starvation condition. The HUVEC were pretreated with L-carbocisteine (10, 50, 100, and 200 μM) for 15 minutes, and then stimulated by VEGF (30 ng/mL). The number of living cells after 48 hours was determined by Cell Counting Kit-8 (manufactured by DOJINDO LABORATORIES) (n=6). 2) Results

p38 MAP kinase = experiment: VEGF-induced phosphorylation of p38 MAP kinase in HUVEC (Western blot); assay type: cell-based, human; details: 100 μM pretreatment 15 minutes, VEGF 30 ng/mL for 5 or 15 minutes
Method: as §1

Erk1/2 = experiment: VEGF-induced phosphorylation of Erk1/2 in HUVEC (Western blot); assay type: cell-based, human; details: 100 μM pretreatment 15 minutes, VEGF 30 ng/mL for 5 or 15 minutes
Method: as §1

N[C@@H](CSCC(=O)O)C(=O)O [L-carbocisteine, S-(carboxymethyl)-L-cysteine]
vascular density in the matrigel [1]: markedly decreased
tube formation promoted by VEGF (overall length of the lumen) (HUVEC [2]): significantly suppressed
migration promoted by VEGF (distance of cell migration) (HUVEC [3]): significantly suppressed
accelerated phosphorylation of Akt (Akt): only accelerated phosphorylation of Erk1/2 was specifically suppressed
accelerated phosphorylation of JNK [4]: only accelerated phosphorylation of Erk1/2 was specifically suppressed
growth suppressive effect, concentration dependence (HUVEC [5]; 10, 50, 100 and 200 μM, 48 hours): concentration-dependent
endothelial cell growth promoted by VEGF (HUVEC [5]; pretreatment with 100 μM or more for 15 minutes, living cells after 48 hours): significantly suppressed
accelerated phosphorylation of p38 MAP kinase (p38 MAP kinase): only accelerated phosphorylation of Erk1/2 was specifically suppressed
accelerated phosphorylation of Erk1/2 (Erk1/2): specifically suppressed
